Data taken from patent US8916702B2 (priority 2012, dated 2014).
Where two headings read alike, the source gives them in different places.

Test system: HCV pseudoparticles (genotype 1a HCV E1 and E2 envelope, H77C isolate)
Assay: microbe, parasite or virus in culture
Assay type: cell-based
Conditions: Hepatitis C virus
[1] = Huh-7, 48 h, read-out: Activity (EC50 class), HCV pseudoparticle infection of Huh7 cells, luciferase 2 days after infection, EC50 expressed as class A/B
[2] = Huh-7, 48 h, read-out: Activity (EC50 class), HCV pseudoparticles, Huh7 cells, luciferase 2 days after infection, average of duplicates
[3] = Huh-7, read-out: Activity (EC50 class), HCV pseudoparticles (genotype 1a, H77C) in Huh7 cells, EC50 expressed as class A/B
[4] = Huh-7, 48 h, HCV pseudoparticles (genotype 1a, H77C) in Huh7 cells, average of duplicate, luciferase 2 days after infection
[5] = Huh-7, 48 h, HCV pseudoparticle infection of Huh7 cells, luciferase 2 days after infection, average of duplicates

Row | SMILES | EC50 [1] [nM] | EC50 [3] [nM] | also measured
1 | Cn1cc(NC(=O)C(=O)NCC[C@H](NC(=O)c2ccc(Nc3nc(NC4(c5ccc(Cl)cc5)CC4)nc(OCC(F)(F)F)n3)cc2)C(=O)O)cn1 [Compound 1268] | 0.01 to 10 | – | –
2 | COc1cccc2sc(NC(=O)C(=O)NCC(C)(C)CNC(=O)c3ccc(Nc4nc(NC5(c6ccc(Cl)cc6)CC5)nc(OCC(F)(F)F)n4)cc3F)nc12 [Compound 3814] | – | – | EC50 [2]: 0.01 to 10 nM
3 | CCc1cccc(NC(=O)C(=O)NCC[C@@H](NC(=O)c2ccc(Nc3nc(NC4(c5ccc(Cl)cc5)CC4)nc(OCC(F)(F)F)n3)cc2)C(=O)OC)c1 [Compound 3573] | – | 0.01 to 10 | –
4 | COC(=O)[C@H](CNC(=O)C(=O)Nc1ccc(CN2CCS(=O)(=O)CC2)cc1)NC(=O)c1ccc(Nc2nc(NC3(c4ccc(Cl)cc4)CC3)nc(OCC(F)(F)F)n2)cc1 [Compound 3194] | – | 0.01 to 10 | –
5 | COC(=O)[C@H](CNC(=O)C(=O)NCCn1cncn1)NC(=O)c1ccc(Nc2nc(NC3(c4ccc(Cl)cc4)CC3)nc(OCC(F)(F)F)n2)cc1 [Compound 1298] | 0.01 to 10 | – | –
6 | O=C(NCC[C@H](NC(=O)c1ccc(Nc2nc(NC3(c4ccc(Cl)cc4)CC3)nc(OCC(F)(F)F)n2)cc1)C(=O)O)C(=O)Nc1ccc(Oc2ccccc2)nc1 [Compound 3640] | – | – | EC50 (Huh-7, 48 h, HCV pseudoparticles, Huh7 cells, luciferase 2 days after infection, average of duplicates): 16.1 nM; EC50 [2]: 10 to 1000 nM
7 | CC(C)CNC(=O)C(=O)N(CCO)CCCNC(=O)c1ccc(Nc2nc(NC3(c4ccc(Cl)cc4)CC3)nc(OCC(F)(F)F)n2)cc1 [Compound 3505] | – | 0.01 to 10 | –
8 | CC(C)(CNC(=O)C(=O)Nc1ccc2ncsc2c1)CNC(=O)c1ccc(Nc2nc(NC3(c4ccc(Cl)cc4)CC3)nc(OCC(F)(F)F)n2)cc1F [Compound 3566] | – | 0.01 to 10 | –
9 | Cc1ccc(NC(=O)C(=O)NC[C@H](NC(=O)c2ccc(Nc3nc(NC4(c5ccc(Cl)cc5)CC4)nc(OCC(F)(F)F)n3)cc2)C(=O)O)cc1 [Compound 1360] | 0.01 to 10 | – | –
10 | O=C(NC[C@H](NC(=O)c1ccc(Nc2nc(NC3(c4ccc(Cl)cc4)CC3)nc(OCC(F)(F)F)n2)cc1)C(=O)O)C(=O)Nc1ccc(-c2cc[nH]n2)cc1 [Compound 3278] | – | 0.01 to 10 | –
11 | Cc1ccc(NC(=O)C(=O)NCC(C)(C)CNC(=O)c2ccc(Nc3nc(NC4(c5ccc(Cl)cc5)CC4)nc(OCC(F)(F)F)n3)cc2)c(F)c1 [Compound 3056] | – | 0.01 to 10 | EC50 [4]: 0.007 nM
12 | COC(=O)[C@H](CCNC(=O)C(=O)Nc1ccc(-n2ccnc2C)cc1)NC(=O)c1ccc(Nc2nc(NC3(c4ccc(Cl)cc4)CC3)nc(OCC(F)(F)F)n2)cc1 [Compound 3320] | – | 0.01 to 10 | EC50 [4]: 8.8 nM
13 | O=C(NC/C(=N/C(=O)c1ccc(Nc2nc(NC3(c4ccc(Cl)cc4)CC3)nc(OCC(F)(F)F)n2)cc1)C(=O)O)C(=O)Nc1ccc(Cl)cc1 [Compound 3149] | – | 0.01 to 10 | –
14 | COC(=O)[C@H](CCNC(=O)C(=O)NC1CC(C)CC(C)(C)C1)NC(=O)c1ccc(Nc2nc(NC3(c4ccc(Cl)cc4)CC3)nc(OCC(F)(F)F)n2)cc1 (stereo partly shown) [Compound 1107] | 0.01 to 10 | – | EC50 [5]: 0.46 nM
15 | COC(=O)[C@H](CNC(=O)C(=O)N[C@@H]1C[C@H]2C[C@@H]([C@H]1C)C2(C)C)NC(=O)c1ccc(Nc2nc(NC3(c4ccc(Cl)cc4)CC3)nc(OCC(F)(F)F)n2)cc1 [Compound 1069] | 0.01 to 10 | – | –
16 | COC(=O)[C@H](CCNC(=O)C(=O)NC[C@H]1C[C@H]1c1ccc(C)cc1)NC(=O)c1ccc(Nc2nc(NC3(c4ccc(Cl)cc4)CC3)nc(OCC(F)(F)F)n2)cc1 [Compound 1393] | 0.01 to 10 | – | –
17 | Cc1nc(-c2ccc(NC(=O)C(=O)NC[C@H](NC(=O)c3ccc(Nc4nc(NC5(c6ccc(Cl)cc6)CC5)nc(OCC(F)(F)F)n4)cc3)C(=O)O)cc2)cs1 [Compound 3275] | – | 0.01 to 10 | –
18 | COC(=O)[C@H](CCNC(=O)C(=O)NCCc1cccnc1)NC(=O)c1ccc(Nc2nc(NC3(c4ccc(Cl)cc4)CC3)nc(OCC(F)(F)F)n2)cc1 [Compound 1316] | 0.01 to 10 | – | EC50 [5]: 0.57 nM
19 | COC(=O)[C@H](CNC(=O)C(=O)Nc1ccn(C)n1)NC(=O)c1ccc(Nc2nc(NC3(c4ccc(Cl)cc4)CC3)nc(OCC(F)(F)F)n2)cc1 [Compound 1244] | 0.01 to 10 | – | –
20 | O=C(NC1CCCCC1)C(=O)N(CCO)CCCNC(=O)c1ccc(Nc2nc(NC3(c4ccc(Cl)cc4)CC3)nc(OCC(F)(F)F)n2)cc1 [Compound 3510] | – | 0.01 to 10 | –
